Assay results published in PubChem BioAssay (NCI).
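Following 48 hours of exposure in 96-well plates, responses at five concentrations were used to interpolate endpoints linearly. Definition used: TGI = concentration required for complete inhibition of growth.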

How the values were obtained:
Assay in all cases: NCI tumour cell line growth inhibition, 48 h
A549 NSCLC = tested on: A549 NSCLC
OVCAR-8 ovarian = tested on: OVCAR-8 ovarian
M19-MEL melanoma = tested on: M19-MEL melanoma
IGROV1 ovarian = tested on: IGROV1 ovarian
ACHN renal = tested on: ACHN renal
NCI-H226 lung = tested on: NCI-H226 lung
A498 renal = tested on: A498 renal
SNB-78 CNS = tested on: SNB-78 CNS
HOP-92 NSCLC = tested on: HOP-92 NSCLC
RXF-631 renal = tested on: RXF-631 renal
SNB-75 CNS = tested on: SNB-75 CNS
HCT-116 colon = tested on: HCT-116 colon
MOLT-4 leukemia = tested on: MOLT-4 leukemia
LOX IMVI melanoma = tested on: LOX IMVI melanoma
NCI-H522 lung = tested on: NCI-H522 lung
RXF 393 renal = tested on: RXF 393 renal
COLO 205 colon = tested on: COLO 205 colon
M14 melanoma = tested on: M14 melanoma
HCC-2998 colon = tested on: HCC-2998 colon
SNB-19 CNS = tested on: SNB-19 CNS
SR leukemia = tested on: SR leukemia
DLD-1 colon = tested on: DLD-1 colon
UACC-62 melanoma = tested on: UACC-62 melanoma
DMS 114 small cell lung = tested on: DMS 114 small cell lung
HT29 colon = tested on: HT29 colon
OVCAR-3 ovarian = tested on: OVCAR-3 ovarian
KM20L2 colon = tested on: KM20L2 colon
K-562 leukemia = tested on: K-562 leukemia
NCI-H460 lung = tested on: NCI-H460 lung
HOP-18 NSCLC = tested on: HOP-18 NSCLC
OVCAR-5 ovarian = tested on: OVCAR-5 ovarian
LXFL 529 NSCLC = tested on: LXFL 529 NSCLC
CAKI-1 renal = tested on: CAKI-1 renal
OVCAR-4 ovarian = tested on: OVCAR-4 ovarian
SN12C renal = tested on: SN12C renal
NCI-H23 lung = tested on: NCI-H23 lung
SK-MEL-5 melanoma = tested on: SK-MEL-5 melanoma
TK-10 renal = tested on: TK-10 renal
SK-MEL-2 melanoma = tested on: SK-MEL-2 melanoma
CCRF-CEM leukemia = tested on: CCRF-CEM leukemia
DMS 273 small cell lung = tested on: DMS 273 small cell lung
KM12 colon = tested on: KM12 colon
MALME-3M melanoma = tested on: MALME-3M melanoma
SF-295 CNS = tested on: SF-295 CNS
SK-MEL-28 melanoma = tested on: SK-MEL-28 melanoma
RPMI-8226 leukemia = tested on: RPMI-8226 leukemia
SW-620 colon = tested on: SW-620 colon
HCT-15 colon = tested on: HCT-15 colon
U251 CNS = tested on: U251 CNS
UACC-257 melanoma = tested on: UACC-257 melanoma
HOP-62 NSCLC = tested on: HOP-62 NSCLC
SF-268 CNS = tested on: SF-268 CNS
HL-60(TB) leukemia = tested on: HL-60(TB) leukemia
SF-539 CNS = tested on: SF-539 CNS
UO-31 renal = tested on: UO-31 renal
786-0 renal = tested on: 786-0 renal
XF 498 CNS = tested on: XF 498 CNS
MCF7 breast = tested on: MCF7 breast
EKVX NSCLC = tested on: EKVX NSCLC
SN12K1 renal = tested on: SN12K1 renal
SK-OV-3 ovarian = tested on: SK-OV-3 ovarian
P388/ADR leukemia = tested on: P388/ADR leukemia
P388 leukemia = tested on: P388 leukemia
NCI/ADR-RES ovarian = tested on: NCI/ADR-RES ovarian

CN(C)CC1(Cc2ccccc2)CC/C(=C\c2ccccc2)C1=O (stereo not given)
TGI (A549 NSCLC): > 100 µM
TGI (OVCAR-8 ovarian): > 100 µM
TGI (M19-MEL melanoma): 64.6 µM
TGI (IGROV1 ovarian): > 100 µM
TGI (ACHN renal): > 100 µM
TGI (NCI-H226 lung): > 100 µM
TGI (A498 renal): > 100 µM
TGI (SNB-78 CNS): > 100 µM
TGI (HOP-92 NSCLC): > 100 µM
TGI (RXF-631 renal): 83.7 µM
TGI (SNB-75 CNS): > 100 µM
TGI (HCT-116 colon): > 100 µM
TGI (MOLT-4 leukemia): 67.5 µM
TGI (LOX IMVI melanoma): 74.9 µM
TGI (NCI-H522 lung): 30.1 µM
TGI (RXF 393 renal): 92.8 µM
TGI (COLO 205 colon): 89.6 µM
TGI (M14 melanoma): > 100 µM
TGI (HCC-2998 colon): 40.7 µM
TGI (SNB-19 CNS): 63.3 µM
TGI (SR leukemia): 60.4 µM
TGI (DLD-1 colon): > 100 µM
TGI (UACC-62 melanoma): > 100 µM
TGI (DMS 114 small cell lung): 80.1 µM
TGI (HT29 colon): 52.6 µM
TGI (OVCAR-3 ovarian): > 100 µM
TGI (KM20L2 colon): 35 µM
TGI (K-562 leukemia): > 100 µM
TGI (NCI-H460 lung): 68.3 µM
TGI (HOP-18 NSCLC): > 100 µM
TGI (OVCAR-5 ovarian): > 100 µM
TGI (LXFL 529 NSCLC): > 100 µM
TGI (CAKI-1 renal): > 100 µM
TGI (OVCAR-4 ovarian): > 100 µM
TGI (SN12C renal): > 100 µM
TGI (NCI-H23 lung): > 100 µM
TGI (SK-MEL-5 melanoma): 64.3 µM
TGI (TK-10 renal): > 100 µM
TGI (SK-MEL-2 melanoma): > 100 µM
TGI (CCRF-CEM leukemia): 59.9 µM
TGI (DMS 273 small cell lung): > 100 µM
TGI (KM12 colon): > 100 µM
TGI (MALME-3M melanoma): > 100 µM
TGI (SF-295 CNS): > 100 µM
TGI (SK-MEL-28 melanoma): > 100 µM
TGI (RPMI-8226 leukemia): 55.7 µM
TGI (SW-620 colon): 60.3 µM
TGI (HCT-15 colon): 42.1 µM
TGI (U251 CNS): > 100 µM
TGI (UACC-257 melanoma): > 100 µM
TGI (HOP-62 NSCLC): > 100 µM
TGI (SF-268 CNS): > 100 µM
TGI (HL-60(TB) leukemia): 48.7 µM
TGI (SF-539 CNS): 60.3 µM
TGI (UO-31 renal): > 100 µM
TGI (786-0 renal): > 100 µM
TGI (XF 498 CNS): > 100 µM

CC1CC(C)(O)C2C3(C)CCCC2(COC3=O)C12CCC1(CCOC1=O)O2 (stereo not given)
TGI (A549 NSCLC): > 250 µM
TGI (OVCAR-8 ovarian): > 250 µM
TGI (M19-MEL melanoma): > 250 µM
TGI (IGROV1 ovarian): > 250 µM
TGI (NCI-H226 lung): > 250 µM
TGI (A498 renal): 248 µM
TGI (SNB-78 CNS): > 250 µM
TGI (HOP-92 NSCLC): > 250 µM
TGI (SNB-75 CNS): > 250 µM
TGI (HCT-116 colon): > 250 µM
TGI (MOLT-4 leukemia): > 250 µM
TGI (LOX IMVI melanoma): > 250 µM
TGI (NCI-H522 lung): > 250 µM
TGI (RXF 393 renal): > 250 µM
TGI (COLO 205 colon): > 250 µM
TGI (HCC-2998 colon): > 250 µM
TGI (SNB-19 CNS): > 250 µM
TGI (DLD-1 colon): > 250 µM
TGI (MCF7 breast): > 250 µM
TGI (EKVX NSCLC): > 250 µM
TGI (UACC-62 melanoma): > 250 µM
TGI (DMS 114 small cell lung): > 250 µM
TGI (HT29 colon): > 250 µM
TGI (OVCAR-3 ovarian): > 250 µM
TGI (KM20L2 colon): > 250 µM
TGI (K-562 leukemia): > 250 µM
TGI (SN12K1 renal): > 250 µM
TGI (NCI-H460 lung): > 250 µM
TGI (HOP-18 NSCLC): > 250 µM
TGI (OVCAR-5 ovarian): > 250 µM
TGI (CAKI-1 renal): > 250 µM
TGI (OVCAR-4 ovarian): > 250 µM
TGI (SN12C renal): > 250 µM
TGI (NCI-H23 lung): > 250 µM
TGI (SK-OV-3 ovarian): > 250 µM
TGI (SK-MEL-5 melanoma): > 250 µM
TGI (SK-MEL-2 melanoma): > 250 µM
TGI (CCRF-CEM leukemia): > 250 µM
TGI (DMS 273 small cell lung): > 250 µM
TGI (P388/ADR leukemia): > 116 µM
TGI (KM12 colon): > 250 µM
TGI (P388 leukemia): > 250 µM
TGI (MALME-3M melanoma): > 250 µM
TGI (SF-295 CNS): > 250 µM
TGI (SK-MEL-28 melanoma): > 250 µM
TGI (RPMI-8226 leukemia): > 250 µM
TGI (SW-620 colon): > 250 µM
TGI (HCT-15 colon): > 250 µM
TGI (U251 CNS): > 250 µM
TGI (UACC-257 melanoma): > 250 µM
TGI (HOP-62 NSCLC): > 250 µM
TGI (NCI/ADR-RES ovarian): > 250 µM
TGI (SF-268 CNS): > 250 µM
TGI (HL-60(TB) leukemia): > 250 µM
TGI (SF-539 CNS): > 250 µM
TGI (UO-31 renal): > 250 µM
TGI (XF 498 CNS): > 39.6 µM

O=C(O)C12C3CCC(C3)C1(C(=O)O)C1CCC2C1 (stereo not given)
TGI (A549 NSCLC): > 100 µM
TGI (OVCAR-8 ovarian): > 100 µM
TGI (M19-MEL melanoma): > 100 µM
TGI (IGROV1 ovarian): > 100 µM
TGI (ACHN renal): > 100 µM
TGI (NCI-H226 lung): > 100 µM
TGI (A498 renal): > 100 µM
TGI (SNB-78 CNS): > 100 µM
TGI (HOP-92 NSCLC): > 100 µM
TGI (RXF-631 renal): > 100 µM
TGI (SNB-75 CNS): > 100 µM
TGI (HCT-116 colon): > 100 µM
TGI (MOLT-4 leukemia): > 100 µM
TGI (LOX IMVI melanoma): 58.1 µM
TGI (NCI-H522 lung): 54.9 µM
TGI (RXF 393 renal): > 100 µM
TGI (COLO 205 colon): > 100 µM
TGI (M14 melanoma): > 100 µM
TGI (HCC-2998 colon): > 100 µM
TGI (SNB-19 CNS): > 100 µM
TGI (SR leukemia): > 100 µM
TGI (DLD-1 colon): 64.1 µM
TGI (EKVX NSCLC): > 100 µM
TGI (UACC-62 melanoma): > 100 µM
TGI (DMS 114 small cell lung): > 100 µM
TGI (HT29 colon): > 100 µM
TGI (OVCAR-3 ovarian): > 100 µM
TGI (KM20L2 colon): > 100 µM
TGI (K-562 leukemia): > 100 µM
TGI (NCI-H460 lung): > 100 µM
TGI (HOP-18 NSCLC): > 100 µM
TGI (OVCAR-5 ovarian): > 100 µM
TGI (LXFL 529 NSCLC): > 100 µM
TGI (CAKI-1 renal): > 100 µM
TGI (SN12C renal): > 100 µM
TGI (NCI-H23 lung): > 100 µM
TGI (SK-OV-3 ovarian): > 100 µM
TGI (SK-MEL-5 melanoma): > 100 µM
TGI (TK-10 renal): > 100 µM
TGI (SK-MEL-2 melanoma): > 100 µM
TGI (CCRF-CEM leukemia): 95 µM
TGI (DMS 273 small cell lung): > 100 µM
TGI (KM12 colon): > 100 µM
TGI (MALME-3M melanoma): > 100 µM
TGI (SF-295 CNS): > 100 µM
TGI (SK-MEL-28 melanoma): > 100 µM
TGI (RPMI-8226 leukemia): 48.4 µM
TGI (SW-620 colon): 34.2 µM
TGI (HCT-15 colon): > 100 µM
TGI (UACC-257 melanoma): > 100 µM
TGI (HOP-62 NSCLC): > 100 µM
TGI (SF-268 CNS): > 100 µM
TGI (HL-60(TB) leukemia): > 100 µM
TGI (UO-31 renal): > 100 µM
TGI (786-0 renal): > 100 µM
TGI (XF 498 CNS): > 100 µM
